Test [1] relates to innate live bacterial populations in poultry facility swabs. Briefly: 3-step metabolic labeling of poultry facility swabs with or without EDA, PIPER. The class given is cell-based. On the procedure:
Experimental Detail: Swab samples were collected using sponge sticks (3M, Saint Paul, MN) soaked in Letheen broth (samples G, Q) or Neutralizing buffer (sample H). Samples were stored on ice and processed within 24 hours after collection. Eluents from the sponges were aseptically extracted and the rest was frozen at −80° C. until the time of analysis. Prior to 3-step metabolic labeling, an aliquot from each eluent was removed for serial dilution and plating on APC petrifilm (3M, Saint Paul, MN) and incubated as per manufacturer instructions to evaluate the number of total viable bacteria by the “gold standard” method. Each eluent sample was divided into two aliquots for incubation with EDA or without EDA, as a control for non-specific staining with the fluorophore. The 1st step of labeling was carried out by adding 5 μg/mL chloramphenicol and 1 mM EDA, where indicated, followed by 90 min incubation at 37° C. […]
FIG. 24 depicts how 3-step metabolic labeling detects innate live bacterial populations in poultry facility swabs. […] To convert the PIPER counts into the number of live bacteria per swab, the values were corrected for the volume of the viewing window relative to the total sample volume loaded into the cartridge lane, and the fraction of the total eluent volume analyzed.

Test [2] relates to innate live bacterial populations in whole carcass rinsates. Kind of test: 3-step metabolic labeling of whole carcass rinsates with or without EDA, PIPER. The class given is cell-based. The settings on record: two whole carcass rinsate samples. How it is done: Experimental Detail: Whole carcass rinsate samples were prepared as per FSIS USDA guidance using two separate whole chickens from the grocery store obtained prior to “use by” date. Sodium polyanethol sulfonate was added to 0.05% to limit blood clotting. Prior to 3-step metabolic labeling, an aliquot from each rinsate was removed for serial dilution and plating on APC petrifilm (3M, Saint Paul, MN) and incubated as per manufacturer instructions to evaluate the number of total viable bacteria by the “gold standard” method. 1 mL rinsate aliquots were used for incubation with, or without EDA, as a control for non-specific staining with the fluorophore. The 1st step of labeling was carried out by adding 5 μg/mL chloramphenicol and 1 mM EDA, where indicated, followed by 90 min incubation at 37° C. […]
FIG. 25 depicts how 3-step metabolic labeling detects innate live bacterial populations in whole carcass rinsates. FIG. 25A depicts PIPER images of innate populations of live bacteria detected by 3-step metabolic labeling in two separate whole carcass rinsate samples. […] To convert the PIPER counts into the number of live bacteria per swab, the values were corrected for the volume of the viewing window relative to the total sample volume loaded into the cartridge lane, and the fraction of the total sample volume analyzed.

The source of these data is US20250354192A1, “METHODS FOR QUANTIFYING LIVE BACTERIA” (priority 2022, published 2025).

Take `C#CC[C@@H](N)C(=O)O` [EDA, D-propargylglycine]: the “increase in PIPER cell counts over (-EDA) control” value in test [1] (1 mM EDA, 90 min at 37° C.) is about 1.5 log. Besides, the “signal on omitting EDA from the 1st step of labeling” value in test [1] (swab samples H, G and Q) is given as “dramatic reduction of the signal”; in test [2] it was “dramatic reduction of the signal”.
